Results from PubChem BioAssay (NCI).
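In this assay, cells in 96-well plates receive the compound at five concentrations for 48 hours. Endpoints are linearly interpolated between the surrounding concentrations. GI50 = concentration required for 50% inhibition of growth. TGI is the concentration that stops growth completely.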

How the values were obtained:
Test in all cases: NCI-60 cell line screen, 48 h
[1] = test system: 786-0 renal
[2] = test system: A498 renal
[3] = test system: A549 NSCLC
[4] = test system: ACHN renal
[5] = test system: CAKI-1 renal
[6] = test system: CCRF-CEM leukemia
[7] = test system: COLO 205 colon
[8] = test system: DLD-1 colon
[9] = test system: DMS 273 small cell lung
[10] = test system: EKVX NSCLC
[11] = test system: HCC-2998 colon
[12] = test system: HCT-116 colon
[13] = test system: HCT-15 colon
[14] = test system: HL-60(TB) leukemia
[15] = test system: HOP-18 NSCLC
[16] = test system: HOP-62 NSCLC
[17] = test system: HOP-92 NSCLC
[18] = test system: HT29 colon
[19] = test system: IGROV1 ovarian
[20] = test system: K-562 leukemia
[21] = test system: KM20L2 colon
[22] = test system: LOX IMVI melanoma
[23] = test system: M14 melanoma
[24] = test system: MALME-3M melanoma
[25] = test system: MOLT-4 leukemia
[26] = test system: NCI-H226 lung
[27] = test system: NCI-H23 lung
[28] = test system: NCI-H460 lung
[29] = test system: OVCAR-3 ovarian
[30] = test system: OVCAR-4 ovarian
[31] = test system: OVCAR-5 ovarian
[32] = test system: OVCAR-8 ovarian
[33] = test system: RPMI-8226 leukemia
[34] = test system: RXF 393 renal
[35] = test system: SF-268 CNS
[36] = test system: SF-295 CNS
[37] = test system: SF-539 CNS
[38] = test system: SK-MEL-2 melanoma
[39] = test system: SK-MEL-28 melanoma
[40] = test system: SK-MEL-5 melanoma
[41] = test system: SN12C renal
[42] = test system: SNB-19 CNS
[43] = test system: SNB-75 CNS
[44] = test system: SNB-78 CNS
[45] = test system: SW-620 colon
[46] = test system: UACC-257 melanoma
[47] = test system: UACC-62 melanoma
[48] = test system: UO-31 renal

For CC[O-].CC[O-].O=C1C(=C([O-])c2ccccc2)C(=O)c2ccccc21.O=C1C(=C([O-])c2ccccc2)C(=O)c2ccccc21.[Ti+4], which GI50 [1] is on record?
Its GI50 is over 100 µM.

And the TGI [1]?
The TGI was over 100 µM.

And the GI50 [2]?
The GI50 was over 100 µM.

What about the TGI [2] of the same compound?
The TGI was over 100 µM.

And the GI50 [3]?
Its GI50 is over 100 µM.

What about the TGI [3] of the same compound?
The TGI was over 100 µM.

And the GI50 [4]?
Its GI50 is over 100 µM.

What about the TGI [4] of the same compound?
Its TGI is over 100 µM.

And the GI50 [5]?
The GI50 was 29.6 µM.

And the TGI [5]?
The TGI was over 100 µM.

And the GI50 [6]?
The GI50 was over 100 µM.

What about the TGI [6] of the same compound?
The TGI was over 100 µM.

And the GI50 [7]?
The GI50 was 29.2 µM.

What about the TGI [7] of the same compound?
The TGI was over 100 µM.

What about the GI50 [8] of the same compound?
Its GI50 is 93.2 µM.

And the TGI [8]?
Its TGI is over 100 µM.

What about the GI50 [9] of the same compound?
Its GI50 is 54.8 µM.

What about the TGI [9] of the same compound?
The TGI was over 100 µM.

What about the GI50 [10] of the same compound?
Its GI50 is 24.3 µM.

And the TGI [10]?
The TGI was over 100 µM.

And the GI50 [11]?
Its GI50 is over 100 µM.

And the TGI [11]?
The TGI was over 100 µM.

And the GI50 [12]?
The GI50 was over 100 µM.

And the TGI [12]?
The TGI was over 100 µM.

And the GI50 [13]?
Its GI50 is 52.9 µM.

What about the TGI [13] of the same compound?
Its TGI is over 100 µM.

And the GI50 [14]?
The GI50 was over 100 µM.

What about the TGI [14] of the same compound?
The TGI was over 100 µM.

And the GI50 [15]?
The GI50 was over 100 µM.

And the TGI [15]?
The TGI was over 100 µM.

What about the GI50 [16] of the same compound?
Its GI50 is over 100 µM.

And the TGI [16]?
The TGI was over 100 µM.

And the GI50 [17]?
Its GI50 is 95.1 µM.

What about the TGI [17] of the same compound?
Its TGI is over 100 µM.

And the GI50 [18]?
The GI50 was over 100 µM.

What about the TGI [18] of the same compound?
Its TGI is over 100 µM.

And the GI50 [19]?
Its GI50 is over 100 µM.

And the TGI [19]?
Its TGI is over 100 µM.

What about the GI50 [20] of the same compound?
The GI50 was over 100 µM.

And the TGI [20]?
Its TGI is over 100 µM.

And the GI50 [21]?
The GI50 was over 100 µM.

What about the TGI [21] of the same compound?
Its TGI is over 100 µM.

And the GI50 [22]?
Its GI50 is over 100 µM.

And the TGI [22]?
Its TGI is over 100 µM.

What about the GI50 [23] of the same compound?
The GI50 was over 100 µM.

And the TGI [23]?
Its TGI is over 100 µM.

And the GI50 [24]?
The GI50 was over 100 µM.

And the TGI [24]?
Its TGI is over 100 µM.

What about the GI50 [25] of the same compound?
Its GI50 is over 100 µM.

And the TGI [25]?
The TGI was over 100 µM.

And the GI50 [26]?
The GI50 was over 100 µM.

And the TGI [26]?
Its TGI is over 100 µM.

And the GI50 [27]?
The GI50 was 92.3 µM.

And the TGI [27]?
The TGI was over 100 µM.

What about the GI50 [28] of the same compound?
The GI50 was 42.9 µM.

What about the TGI [28] of the same compound?
Its TGI is over 100 µM.

What about the GI50 [29] of the same compound?
Its GI50 is over 100 µM.

What about the TGI [29] of the same compound?
Its TGI is over 100 µM.

And the GI50 [30]?
The GI50 was over 100 µM.

What about the TGI [30] of the same compound?
The TGI was over 100 µM.

What about the GI50 [31] of the same compound?
The GI50 was over 100 µM.

What about the TGI [31] of the same compound?
The TGI was over 100 µM.

What about the GI50 [32] of the same compound?
The GI50 was 92.7 µM.

And the TGI [32]?
The TGI was over 100 µM.

And the GI50 [33]?
The GI50 was 42.5 µM.

And the TGI [33]?
The TGI was over 100 µM.

And the GI50 [34]?
The GI50 was over 100 µM.

And the TGI [34]?
The TGI was over 100 µM.

And the GI50 [35]?
The GI50 was over 10 µM.

What about the TGI [35] of the same compound?
The TGI was over 10 µM.

And the GI50 [36]?
The GI50 was 98.4 µM.

And the TGI [36]?
Its TGI is over 100 µM.

And the GI50 [37]?
The GI50 was over 100 µM.

And the TGI [37]?
The TGI was over 100 µM.

And the GI50 [38]?
Its GI50 is 66.3 µM.

And the TGI [38]?
Its TGI is over 100 µM.

And the GI50 [39]?
Its GI50 is over 10 µM.

And the TGI [39]?
Its TGI is over 10 µM.

What about the GI50 [40] of the same compound?
The GI50 was over 100 µM.

And the TGI [40]?
The TGI was over 100 µM.

And the GI50 [41]?
The GI50 was 26.6 µM.

What about the TGI [41] of the same compound?
The TGI was 99 µM.

What about the GI50 [42] of the same compound?
Its GI50 is 29 µM.

What about the TGI [42] of the same compound?
Its TGI is 93 µM.

And the GI50 [43]?
Its GI50 is over 100 µM.

And the TGI [43]?
Its TGI is over 100 µM.

What about the GI50 [44] of the same compound?
The GI50 was over 100 µM.

What about the TGI [44] of the same compound?
Its TGI is over 100 µM.

And the GI50 [45]?
The GI50 was over 100 µM.

And the TGI [45]?
Its TGI is over 100 µM.

And the GI50 [46]?
The GI50 was over 100 µM.

What about the TGI [46] of the same compound?
The TGI was over 100 µM.

What about the GI50 [47] of the same compound?
Its GI50 is over 100 µM.

What about the TGI [47] of the same compound?
Its TGI is over 100 µM.

And the GI50 [48]?
The GI50 was over 100 µM.

What about the TGI [48] of the same compound?
Its TGI is over 100 µM.
